Laboratory results: patent US10138292B2, “Cell culture medium” (BIOLAMINA AB, priority 2010, dated 2018)

Experiments:
human ES cells [1] = experiment: Cell adhesion assay, 1 hour (Example 1); assay type: cell-based; conditions: O3 medium without any additives, without Y-27632
Experimental: Ninety-six-well tissue cell culture plates were coated overnight at 4° C. with sterile solutions of the ECM proteins mouse LN-111 (Invitrogen), human recombinant LN-511, and human recombinant LN-521, all at a concentration of 30 μg/ml (5 μg/cm^2). For control cells, BD Matrigel™ hESC qualified (BD Biosciences) was used according to the manufacturer's instructions.
The assay was performed as described (Extracellular Matrix Protocols, 2000). Briefly, 96-well plates were coated by extracellular matrix proteins as described above and blocked by O3 medium containing bovine serum albumin. The ES cells were plated at a cell density of 600 cell/mm^2 upon extracellular matrix-coated plates and were left to adhere for either 1 hour or 1 day at the cell incubator. Non-adherent cells were washed away, and adherent cells were fixed for 20 min by 5% glutaraldehyde, stained by 0.1% Crystal Violet.

human ES cells [2] = experiment: Long-term culture with single cell dissociation passaging (Example 1); assay type: cell-based
Experimental: Human ES cells were cultured on r-laminin-521-coated laboratory dishes in chemically defined O3 medium (described in Rodin et al., Nature Biotechnol., vol. 28, pp. 611-615 (2010)) at 37° C. in 5% CO2. Cells were routinely passed once every 10-12 days by exposure to Trypsin-EDTA solution (GIBCO Invitrogen) for 5 minutes at 37° C. They were then gently pipetted to break into single-cell suspension and defined trypsin inhibitor (GIBCO Invitrogen) was added. The cell suspension was centrifuged […], the supernatant discarded, the cell pellet resuspended in prewarmed O3 medium, and cells were then passed through a 40 μm sieve. After that cells were plated on new r-laminin-521-coated dishes at a concentration 30 Kcells/cm^2 (1:25-1:30 split ratio). Cells were fed once a day with fresh medium prewarmed in an incubator for 1 hour, except for the first day after a passage, when only a few drops of fresh medium were added. Control cells of the same line were cultured on Matrigel (BD Biosciences) in O3 medium as described in Rodin et al., Nature Biotechnol., vol. 28, pp. 611-615 (2010). Control cells were passaged in pieces.

OCT4 = experiment: FACS analysis for OCT4; assay type: cell-based, human; conditions: after several single cell suspension passages, O3 medium
Experimental: OCT4 expression was analyzed as described in Ludwig, T. E. et al. Derivation of human embryonic stem cells in defined conditions. Nat. Biotechnol. 24, 185-187 (2006). Cells were run on FACSCalibur Flow Cytometer (Becton Dickinson). Data were analyzed with CellQuest software (Becton Dickinson).

human ES and iPS cells = experiment: Long-term self-renewal culture on LN-521 (Example 2); assay type: cell-based
[3] = system: phosphorylated myosin light chain (P-MLC); experiment: Western blot of phosphorylated myosin light chain; assay type: cell-based, human; conditions: one and six hours after plating
Experimental: HS 181 cells were trypsinized into single cell suspension as described above. For inhibition experiments, the cells were kept in O3 medium with blocking antibodies or pathway inhibitors for 30 minutes and then 450K cells were plated on 35 mm dishes precoated with the appropriate matrix coating. For other experiments, same number of cells was plated directly after trypsinization. […] After two washings in ice-cold PBS, the plates with cells were snap frozen in liquid nitrogen and stored at −80° C. To prepare samples for western blots and ELISA, the plates were slowly thawed and kept on ice with 100-150 μl of lysis buffer (50 mM Tris-HCl, pH7.5, 150 mM NaCl, 0.5% deoxycholate, 0.5% SDS, 1% Triton X-100, 1% Igepal, Complete™ (Roche) and Phospho-Stop™ (Roche)) on top. Then, the cells were scraped, pipetted and sheared through a 27G ¾″ needle. After that, the cell pellets were clarified by centrifugation at 16,100 rcf for 15 minutes at 4° C. For western blots, 4-12% gradient gels were used for SDS electrophoresis and the proteins were transferred to PVDF membranes. The membrane was hybridized with the antibody of interest according to the manufacturer's instructions. Chemoluminescent HRP-substrate from Amersham Biosciences was used for visualization. For the densitometry analysis the films were scanned at 2,400 dpi and analyzed by the Chemilmager5500 program (1D-Multi Line densitometry mode). […]

[4] = system: PI3K/Akt and MEK1/Erk pathways; experiment: Western blot with antibodies to phospho-Akt / phospho-Erk; assay type: cell-based, human; conditions: data not shown
Experimental: HS 181 cells were trypsinized into single cell suspension as described above. For inhibition experiments, the cells were kept in O3 medium with blocking antibodies or pathway inhibitors for 30 minutes and then 450K cells were plated on 35 mm dishes precoated with the appropriate matrix coating. For other experiments, same number of cells was plated directly after trypsinization. In all cases the cells were allowed to spread for 1 hour at 37° C., 5% CO2. After two washings in ice-cold PBS, the plates with cells were snap frozen in liquid nitrogen and stored at −80° C. To prepare samples for western blots and ELISA, the plates were slowly thawed and kept on ice with 100-150 μl of lysis buffer (50 mM Tris-HCl, pH7.5, 150 mM NaCl, 0.5% deoxycholate, 0.5% SDS, 1% Triton X-100, 1% Igepal, Complete™ (Roche) and Phospho-Stop™ (Roche)) on top. Then, the cells were scraped, pipetted and sheared through a 27G ¾″ needle. After that, the cell pellets were clarified by centrifugation at 16,100 rcf for 15 minutes at 4° C. For western blots, 4-12% gradient gels were used for SDS electrophoresis and the proteins were transferred to PVDF membranes. The membrane was hybridized with the antibody of interest according to the manufacturer's instructions. […] For the densitometry analysis the films were scanned at 2,400 dpi and analyzed by the Chemilmager5500 program (1D-Multi Line densitometry mode). […]

Integrin α6β1 = Integrin α6β1 (Homo sapiens, UniProt P05556+P23229); conditions: cited from earlier work
Integrin α6β1, sequence (P23229 24-1130): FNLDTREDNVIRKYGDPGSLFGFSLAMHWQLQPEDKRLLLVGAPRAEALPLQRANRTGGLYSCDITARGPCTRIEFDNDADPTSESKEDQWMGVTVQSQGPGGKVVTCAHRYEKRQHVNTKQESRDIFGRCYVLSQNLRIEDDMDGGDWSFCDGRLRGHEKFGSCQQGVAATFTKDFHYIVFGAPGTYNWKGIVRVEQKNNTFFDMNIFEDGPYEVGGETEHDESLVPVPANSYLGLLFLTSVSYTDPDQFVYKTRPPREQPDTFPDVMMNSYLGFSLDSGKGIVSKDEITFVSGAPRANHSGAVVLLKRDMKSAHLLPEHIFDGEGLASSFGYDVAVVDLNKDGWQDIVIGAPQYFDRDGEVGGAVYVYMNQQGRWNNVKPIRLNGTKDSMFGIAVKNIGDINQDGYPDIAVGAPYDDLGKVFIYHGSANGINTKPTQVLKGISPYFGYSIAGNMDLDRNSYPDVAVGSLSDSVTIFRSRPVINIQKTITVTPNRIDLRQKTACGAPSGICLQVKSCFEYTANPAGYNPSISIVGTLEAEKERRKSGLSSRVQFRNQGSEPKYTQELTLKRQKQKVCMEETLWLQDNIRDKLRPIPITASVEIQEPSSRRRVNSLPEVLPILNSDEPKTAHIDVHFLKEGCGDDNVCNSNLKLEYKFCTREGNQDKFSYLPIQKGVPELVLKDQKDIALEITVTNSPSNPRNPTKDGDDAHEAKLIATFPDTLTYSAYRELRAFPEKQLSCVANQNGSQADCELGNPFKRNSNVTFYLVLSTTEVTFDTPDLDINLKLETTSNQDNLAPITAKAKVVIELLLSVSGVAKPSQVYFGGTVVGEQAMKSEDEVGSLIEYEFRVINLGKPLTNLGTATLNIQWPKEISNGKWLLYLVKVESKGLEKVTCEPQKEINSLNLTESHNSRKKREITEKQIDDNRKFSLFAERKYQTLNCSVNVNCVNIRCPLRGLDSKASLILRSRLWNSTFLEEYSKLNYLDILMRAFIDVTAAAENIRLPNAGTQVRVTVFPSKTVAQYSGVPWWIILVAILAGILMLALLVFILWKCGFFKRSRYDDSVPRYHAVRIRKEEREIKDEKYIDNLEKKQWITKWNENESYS
Integrin α6β1, sequence (P05556 21-798): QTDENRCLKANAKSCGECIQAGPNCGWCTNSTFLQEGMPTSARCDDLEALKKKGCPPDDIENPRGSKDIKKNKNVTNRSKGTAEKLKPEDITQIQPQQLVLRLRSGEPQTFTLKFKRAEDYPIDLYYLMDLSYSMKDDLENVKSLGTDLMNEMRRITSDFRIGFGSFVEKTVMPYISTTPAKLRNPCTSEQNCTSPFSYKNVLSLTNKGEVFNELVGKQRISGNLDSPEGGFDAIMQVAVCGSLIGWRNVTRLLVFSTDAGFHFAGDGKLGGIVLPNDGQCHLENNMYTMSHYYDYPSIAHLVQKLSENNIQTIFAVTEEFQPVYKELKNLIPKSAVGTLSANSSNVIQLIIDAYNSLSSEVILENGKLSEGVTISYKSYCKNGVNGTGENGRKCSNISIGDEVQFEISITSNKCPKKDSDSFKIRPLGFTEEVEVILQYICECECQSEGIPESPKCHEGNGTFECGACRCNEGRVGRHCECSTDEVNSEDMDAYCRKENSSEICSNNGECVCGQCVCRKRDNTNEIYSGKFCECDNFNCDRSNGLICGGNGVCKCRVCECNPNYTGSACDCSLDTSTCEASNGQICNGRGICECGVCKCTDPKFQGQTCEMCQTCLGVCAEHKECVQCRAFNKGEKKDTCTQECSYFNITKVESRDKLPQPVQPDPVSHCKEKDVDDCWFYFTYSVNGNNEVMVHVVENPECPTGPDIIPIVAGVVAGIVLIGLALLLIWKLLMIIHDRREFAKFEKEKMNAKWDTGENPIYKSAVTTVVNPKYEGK

For “LN-521: protein formed by joining α5, β2 and γ1 laminin chains; human recombinant, produced in HEK293 cells”, the “adhesion of human ES cells at 1 hour” value (human ES cells [1]) was “roughly the same”, the “increase in the number of cells versus time compared with Matrigel” value (human ES cells [2]; LN-521 single cell passaging vs Matrigel clumps) was “much faster rate” and the “passages with robust proliferation at stable and high rate” value (human ES cells [2]; single cell suspension passaging every 10-12 days, 1:25 to 1:30 ratios (3 months)) was “at least 9 passages”. For the same substance, the “percentage of Oct4 positive (pluripotent) cells compared with Matrigel” value (OCT4) was “much higher percentage”, the passages cultured (human ES and iPS cells; ChiPSW cells, mTeSR1) was 3 passages and the passages cultured (human ES and iPS cells; CutB1.2 iPS cells, mTeSR1) was 5 passages. For the same substance, the passages of proliferation (human ES and iPS cells; H1 cells, O3 medium (6 months)) was no less than 15 passages, the passages cultured (human ES and iPS cells; H1 cells, TeSR2 (5 months)) was 12 passages and the passages of proliferation (human ES and iPS cells; HS181 cells, O3 medium (9 months)) was “at least 24 passages”. For the same substance, the passages of proliferation (human ES and iPS cells; HS401 cells, O3 medium (2 months)) was no less than 5 passages, the passages cultured (human ES and iPS cells; HS401 cells, TeSR2 (1.5 months)) was 4 passages and the “phosphorylation of MLC compared with cells on Matrigel and LN-111” value [3] was “even higher”. For the same substance, the “PI3K/Akt pathway activity (phospho-Akt western blot)” value [4] was “active” and the “binding affinity of integrin α6β1 compared with LN-111” value (Integrin α6β1) was “higher”.
